Data: patent US8084470B2, “Substituted nicotinamide compounds and uses thereof” (Gruenenthal GmbH, priority 2007, dated 2011)
pEC50: −log10 of the molar value.

Assays:
[1] = test system: male rats (Sprague-Dawley); experiment: Formalin test, rat (second phase); format: in vivo; conditions: pain rate vs vehicle control, late phase
Description: The investigations to determine the antinociceptive activity of the compounds were carried out in the formalin test on male rats (Sprague-Dawley, 150-170 g).
In the formalin test, a distinction is made between the first (early) phase (0-15 min after formalin injection) and the second (late) phase (15-60 min after formalin injection) (D. Dubuisson, S. G. Dennis, Pain 4, 161-174 (1977)). The early phase, as a direct reaction to the formalin injection, represents a model for acute pain, while the late phase is regarded as a model for persistent (chronic) pain (T. J. Coderre, J. Katz, A. L. Vaccarino, R. Meizack, Pain, Vol. 52, p. 259, 1993).
The compounds according to the invention were investigated in the second phase of the formalin test in order to obtain information about the activity of substances in the case of chronic/inflammatory pain.
A nociceptive reaction was induced in freely mobile test animals by means of a single subcutaneous formalin injection (50 μl, 5% strength) into the dorsal side of the right rear paw, the reaction manifesting itself in the following behaviour parameters: lifting and holding of the affected paw (score 1), shaking or twitching (score 2), licking and biting (score 3). The differing behaviors induced by the formalin injection were detected continuously by observation of the animals in the late phase of the formalin test and were weighted differently in an evaluation. Normal behavior, in which the animal puts its weight on all four paws equally, was recorded as score 0. The time of administration before the formalin injection was chosen in dependence on the mode of administration of the compounds according to the invention (intraperitoneal: 15 min, intravenous: 5 min). After injection of substances that have antinociceptive activity in the formalin test, the described behaviours (score 1-3) of the animals are reduced or even eliminated. […] The nociceptive behaviour was calculated as the so-called pain rate (PR). […] Based on the PR calculations, the activity of the substance was determined as the change compared with the control in percent.

[2] = molecular target: T1, hKCNQ2/3 (Homo sapiens, UniProt O43525+O43526); experiment: Fluorescence assay using a voltage sensitive dye; format: cell-based; parameters: expressed in transfected cells; host or cells: CHO-K1
Description: Biological Data Fluorescence Assay Using a Voltage Sensitive Dye
Human CHO-K1 cells expressing KCNQ2/3 channels are cultivated adherently at 37° C., 5% CO2 and 95% humidity in cell culture bottles (e.g. 80 cm^2 TC flasks, Nunc) with DMEM-high glucose (Sigma Aldrich, D7777) including 10% FCS (PAN Biotech, e.g. 3302-P270521) or alternatively with MEM Alpha Medium (1×, liquid, Invitrogen, #22571), 10% fetal calf serum (FCS) (Invitrogen, #10270-106, heat-inactivated) and the necessary selection antibiotics.
Before being distributed for the measurements, the cells are washed with a 1×DPBS buffer without Ca^2+/Mg^2+ (e.g. Invitrogen, #14190-094) and detached from the bottom of the culture vessel by means of Accutase (PAA Laboratories, #L11-007) (incubation with Accutase for 15 min at 37° C.). The cell count then present is determined using a CASY™ cell counter (TCC model, Schärfe System) in order subsequently to apply, according to density optimization for the individual cell line, 20,000-30,000 cells/well/100 μl of the described nutrient medium to 96-well measuring plates of the Corning™ CellBIND™ type (Flat Clear Bottom Black Polystyrene Microplates, #3340). Incubation is then carried out for one hour at room temperature, without gassing or adjusting the humidity, followed by incubation for 24 hours at 37° C., 5% CO2 and 95% humidity.
The voltage-sensitive fluorescent dye from the Membrane Potential Assay Kit (Red™ Bulk format part R8123 for FLIPR, MDS Analytical Technologies™) is prepared by dissolving the contents of a vessel Membrane Potential Assay Kit Red Component A in 200 ml of extracellular buffer (ES buffer, 120 mM NaCl, 1 mM KCl, 10 mM HEPES, 2 mM CaCl2, 2 mM MgCl2, 10 mM glucose; pH 7.4). After removal of the nutrient medium, the cells are washed with 200 μl of ES buffer, then covered with a layer of 100 μl of the dye solution prepared above and incubated for 45 min at room temperature with the exclusion of light.
The fluorescence measurements are carried out with a BMG Labtech FLUOstar™ or BMG Labtech NOVOstar™ or BMG Labtech POLARstar™ instrument (525 nm excitation, 560 nm emission, Bottom Read mode). After incubation of the dye, 50 μl of the test substances in the desired concentrations, or 50 μl of ES buffer for control purposes, are introduced into separate cavities of the measuring plate and incubated for 30 min at room temperature while being shielded from light. The fluorescence intensity of the dye is then measured for 5 min and the fluorescence value F1 of each well is thus determined at a given, constant time. 15 μL of a 100 mM KCl solution ([…]) are then added to each well. The change in fluorescence is subsequently measured until all the relevant measured values have been obtained (mainly 5-30 min). At a given time after KCl application, a fluorescence value F2 is determined, in this case at the time of the fluorescence peak.
For calculation, the fluorescence intensity F2 is compared with the fluorescence intensity F1, and the agonistic activity of the target compound on the potassium channel is determined therefrom. F2 and F1 are calculated as follows:
[formula] In order to determine whether a substance has an agonistic activity,
[formula] for example, can be compared with
[formula] of control cells.
[formula] is determined by adding to the reaction batch only the buffer solution instead of the substance to be tested, determining the value F1K of the fluorescence intensity, adding the potassium ions as described above and measuring a value F2K of the fluorescence intensity. Then F2K and F1K are calculated as follows:
[formula] A substance has an agonistic activity on the potassium channel when
[formula] is greater than
[formula] Independently of the comparison of
[formula] it is also possible to conclude that a target compound has agonistic activity if an increase in
[formula] is to be observed as the dosage of the target compound increases. […]

[3] = molecular target: T1, hKCNQ2/3; experiment: Voltage clamp (patch-clamp) measurements; format: cell-based; parameters: expressed in transfected cells; host or cells: CHO-K1 (stably transfected); conditions: for MAN rel eff @ 10 μm [RG = 1]: test substance 10 μM at −40 mV, increase in current standardized to retigabine (10 μM) effect = 1
Description: Voltage Clamp Measurements
In order to confirm a KCNQ2/3-agonistic action of the substances electrophysiologically, patch-clamp measurements (Hamill et al., 1981) were carried out in voltage clamp mode on a stably transfected hKCNQ2/3 CHO-K1 cell line. After formation of the gigaseal, the cells were first clamped at a holding potential of −60 mV. Thereafter, depolarizing voltage jumps were applied up to a potential of +20 mV (increment: 20 mV, duration: 1 second) in order to confirm the functional expression of KCNQ2/3-typical currents. The testing of the substances was carried out at a potential of −40 mV. The increase in current induced by retigabine (10 μM) at −40 mV was first recorded as a positive control on each cell. After complete washing out of the retigabine effect (duration: 80 s), the test substance (10 μM) was applied. The increase in current induced by the test substance was standardized to the retigabine effect and indicated as the relative efficacy (see below). Hamill O P, Marty A, Neher E, Sakmann B, Sigworth F J.: Improved patch-clamp techniques for high-resolution current recording from cells and cell-free membrane patches. Pflugers Arch. 1981 August; 391(2):85-100. Voltage-clamp measurements were carried out only for selected compounds: […]

[4] = test system: rat; experiment: Chung test on the rat; format: in vivo; conditions: iv, i.v. administration
Description: In addition, Example 89 was investigated in the Chung test on the rat.

Compound | pEC50 [2] | also measured
O=C(NCC1CCCCC1)c1cccnc1SCCS(=O)(=O)c1ccccc1 [Example 56, N-(cyclohexylmethyl)-2-(2-(phenylsulfonyl)ethylthio)nicotinamide] | 6.00 | Change in % ([1]; 2.15 mg/kg i.v.): −34.1%; MAN rel eff @ 10 μm [RG = 1] [3]: 1.06
O=C(NCc1cccs1)c1cccnc1SCCS(=O)(=O)c1ccccc1 [Example 89, 2-(2-(phenylsulfonyl)ethylthio)-N-(thiophen-2-ylmethyl)nicotinamide] | 5.64 | Change in % ([1]; 6.81 mg/kg i.v.): −74.2%; ED50 [4]: 6.3 mg/kg; pEC50 ([3]; patch-clamp, hKCNQ2/3 CHO-K1 cell line, read-out: MAN EC50): 6.00
Cc1cccc(CNC(=O)c2cccnc2SCCS(=O)(=O)c2ccccc2)c1 [Example 65, 2-(2-(phenylsulfonyl)ethylthio)-N-(3-tolylmethyl)nicotinamide] | 6.24 | MAN rel eff @ 10 μm [RG = 1] [3]: 0.4
Cc1ccc(S(=O)(=O)CCSc2ncccc2C(=O)NCc2ccco2)cc1 [Example 39, N-(furan-2-ylmethyl)-2-(2-tosylethylthio)nicotinamide] | 5.22 | 
O=C(NCc1cccs1)c1cccnc1SCCSc1cccc(C(F)(F)F)c1 [Example 73, N-(thiophen-2-ylmethyl)-2-(2-(3-(trifluoromethyl)phenylthio)ethylthio)-nicotinamide] |  | Change in % ([1]; 1 mg/kg i.v.): −29.9%
O=C(NCc1cccs1)c1cccnc1SCCS(=O)(=O)c1ccc(Cl)cc1 [Example 99, 2-[2-(4-chlorophenyl)sulfonylethylthio]-N-(2-thienylmethyl)-nicotinamide] | 6.63 | 
O=C(NCc1ccccc1F)c1cccnc1SCCS(=O)(=O)c1ccccc1 [Example 11, N-(2-fluorobenzyl)-2-(2-(phenylsulfonyl)ethylthio)nicotinamide] | 5.93 | 
COc1ccc(CNC(=O)c2cccnc2SCCS(=O)(=O)c2ccccc2)cc1 [Example 17, N-(4-methoxybenzyl)-2-(2-(phenylsulfonyl)ethylthio)nicotinamide] | 5.19 | 
Cc1ccc(S(=O)(=O)CCSc2ncccc2C(=O)NCc2cccc(C)c2)cc1 [Example 44, N-(3-methylbenzyl)-2-(2-tosylethylthio)nicotinamide] | 5.65 | 

More lines, main results first:

pEC50 [2] | Compound | also measured
5.60 | O=C(NCc1ccccn1)c1cccnc1SCCS(=O)(=O)c1cccc(C(F)(F)F)c1 [Example 90, N-(pyridin-2-ylmethyl)-2-(2-(3-(trifluoromethyl)phenylsulfonyl)ethylthio)-nicotinamide] | MAN rel eff @ 10 μm [RG = 1] [3]: 0.79
5.63 | O=C(NCc1ccccc1)c1cccnc1SCCS(=O)(=O)c1ccccc1 [Example 54, N-benzyl-2-(2-(phenylsulfonyl)ethylthio)nicotinamide] | 
5.73 | Cc1ccc(CNC(=O)c2cccnc2SCCS(=O)(=O)c2ccccc2)cc1 [Example 5, N-(4-methylbenzyl)-2-(2-(phenylsulfonyl)ethylthio)-nicotinamide] | 
5.71 | Cc1ccc(S(=O)(=O)CCSc2ncccc2C(=O)NCc2ccccc2F)cc1 [Example 43, N-(2-fluorobenzyl)-2-(2-tosylethylthio)nicotinamide] | 
5.46 | Cc1ccc(CNC(=O)c2cccnc2SCCS(=O)(=O)c2ccccc2)o1 [Example 61, N-(5-methylfuran-2-ylmethyl)-2-(2-(phenylsulfonyl)ethylthio)nicotinamide] | MAN rel eff @ 10 μm [RG = 1] [3]: 0.81
5.89 | O=C(NCc1ccc(F)cc1)c1cccnc1SCCS(=O)(=O)c1ccccc1 [Example 20, N-(4-fluorobenzyl)-2-(2-(phenylsulfonyl)ethylthio)nicotinamide] | 
6.77 | Cc1cccc(SCCSc2ncccc2C(=O)NCc2cccs2)c1 [Example 105, 2-[2-(m-tolylthio)ethylthio]-N-(2-thienylmethyl)-nicotinamide] | 
6.73 | O=C(NCc1cccs1)c1cccnc1SCCS(=O)(=O)c1cccc(F)c1 [Example 106, 2-[2-(3-fluorophenyl)sulfonylethylthio]-N-(2-thienylmethyl)-nicotinamide] | 
5.74 | O=C(NCc1ccc(F)c(F)c1)c1cccnc1SCCS(=O)(=O)c1ccccc1 [Example 12, N-(3,4-difluorobenzyl)-2-(2-(phenylsulfonyl)ethylthio)nicotinamide] | 
5.93 | O=C(NCCC1CCCCC1)c1cccnc1SCCS(=O)(=O)c1ccccc1 [Example 58, N-(2-cyclohexylethyl)-2-(2-(phenylsulfonyl)ethylthio)nicotinamide] | MAN rel eff @ 10 μm [RG = 1] [3]: 0.47
5.67 | Cc1ccc(S(=O)(=O)CCSc2ncccc2C(=O)NCc2ccc(F)c(F)c2)cc1 [Example 45, N-(3,4-difluorobenzyl)-2-(2-tosylethylthio)nicotinamide] | 
